The subject of one data set is KB. As to the kind of experiment: Cytotoxicity against human KB cells after 72 hrs by methylene blue dye assay. The class given is functional, cell-based.
For a further data set, the system named is MKN-45. Kind of data set: Cytotoxicity against human MKN45 cells after 72 hrs by methylene blue dye assay. Format: functional, cell-based. To be noted: MKN-45, 72 h.
The nature of data set [1]: Metabolic stability in human liver microsomes assessed as compound remaining at 1 uM after 30 mins. The class given is ADME, Microsome. To be noted: read-out: Stability.
A short description of data set [2]: Inhibition of tubulin polymerization measured every 30 seconds for 30 mins.
The nature of data set [3]: Aqueous solubility in distilled water at 2 mg after 24 hrs. Format: physicochemical.
Data set [4] is described as follows: Solubility of the compound in phosphate buffer at 2 mg at pH 7.4 after 24 hrs. The class given is physicochemical.
Data set [5] deals with Rattus norvegicus. Kind of data set: AUC in Sprague-Dawley rat at 5 mg/kg, iv. The class given is ADME, organism-based, Plasma. The settings on record: in vivo. Also on record: dose 5 mg/kg, route intravenous.
Data set [6] concerns Rattus norvegicus. Kind of data set: Volume of distribution at steady state in Sprague-Dawley rat at 5 mg/kg, iv. The settings on record: in vivo. The class given is ADME, organism-based. Also on record: dose 5 mg/kg, route intravenous.
Data set [7] relates to Rattus norvegicus. As to the kind of experiment: Half life in Sprague-Dawley rat plasma at 5 mg/kg, iv. Also on record: dose 5 mg/kg, route intravenous. The class given is ADME, organism-based. The settings on record: in vivo.
Data set [8] is described as follows: Half life in Sprague-Dawley rat plasma at 20 mg/kg, po. The class given is ADME, organism-based. The arrangement: dose 20 mg/kg, route oral.
Data set [9] is described as follows: Cmax in Sprague-Dawley rat at 20 mg/kg, po. The class given is ADME, organism-based. The arrangement: dose 20 mg/kg, route oral. The settings on record: in vivo.
Data set [10] in a line: Tmax in Sprague-Dawley rat at 20 mg/kg, po. The class given is ADME, organism-based. Also on record: dose 20 mg/kg, route oral. To be noted: in vivo.
Data set [11] is described as follows: AUC in Sprague-Dawley rat at 20 mg/kg, po. The class given is ADME, organism-based. To be noted: plasma. Also on record: dose 20 mg/kg, route oral.
A short description of data set [12]: Oral bioavailability in Sprague-Dawley rat at 20 mg/kg. Format: ADME, organism-based. To be noted: in vivo.

pIC50: −log10 of the molar value. ≈ marks a conversion by molar mass, not a printed value. Calls of active or inactive are those of the source. The rule behind the calls is not given here.

Take `COc1ccc2c(C(=O)c3cc(OC)c(OC)c(OC)c3)c(C)cn2c1`: the pIC50 with KB is 7.51; with MKN-45 it was 7.59. The remaining at 0.5 h, 1 µM in data set [1] was 35.4%. In addition, the inhibition entry in data set [2] is “Active”.

`COc1ccc2c(C(=O)c3cc(OC)c(OC)c(OC)c3)n[nH]c2c1`: the pIC50 in the data set on KB is 7.15; in the data set with MKN-45, 7.02.

With `COc1ccc2c(C(=O)c3cc(OC)c(OC)c(OC)c3)ccn2c1`, the pIC50 with KB is 6.55; in the data set on MKN-45, 7.10.

In the case of `COc1ccc2c(C(=O)c3cc(OC)c(OC)c(OC)c3)cnn2n1`, the pIC50 with KB and in the data set with MKN-45 was less than 6.00 each time. In addition, the remaining at 0.5 h, 1 µM in data set [1] was found to be 99.6%.

In the case of `COc1ccc2c(C(=O)c3cc(OC)c(OC)c(OC)c3)c[nH]c2n1`, the pIC50 with KB was 7.70; with MKN-45 it was 7.80. For the same compound, in data set [1], the remaining at 0.5 h, 1 µM came to 88.3%. Also, the solubility at 24 h in data set [3] was less than 2 µg/mL; in [4], less than 1 µg/mL.

For `COc1ccc2c(C(=O)c3cc(OC)c(OC)c(OC)c3)c[nH]c2c1`, the pIC50 with KB is 8.22; in the data set on MKN-45, 8.30. Further, in data set [1], the remaining at 0.5 h, 1 µM is 54.1%. Moreover, the solubility at 24 h is 0.9 µg/mL (≈ 2.64 µM) in data set [3] and 0.61 µg/mL (≈ 1.79 µM) in data set [4]. Besides, the figures for the AUC (with Rattus norvegicus [5]; in data set [11]) were 2712 ng·h/mL and 1310 ng·h/mL, respectively. In the data set with Rattus norvegicus [6], the Vdss turned out to be 1.6 L/kg. In the data set on Rattus norvegicus [7], this compound came in with a t1/2 of 54 min. Besides, the half-life in data set [8] was 168 min. In addition, the Cmax in [9] stood at 179 ng/mL. Further, the Tmax in data set [10] is 4 h. The bioavailability in data set [12] turned out to be 9.7%.

Consider `CCOc1ccc2c(C(=O)c3cc(OC)c(OC)c(OC)c3)c[nH]c2n1`, for which the pIC50 was 7.92 in the data set on KB and 7.85 in the data set with MKN-45. Further, in [1], the remaining at 0.5 h, 1 µM is 96.4%. Also, the values for the solubility at 24 h in [3] and in data set [4] were less than 2 µg/mL and less than 1 µg/mL, respectively. Besides, the inhibition entry in data set [2] is “Active”.

Turning to `COc1cc(C(=O)c2c[nH]c3nc(C)ccc23)cc(OC)c1OC.Cl`, the figures for the solubility at 24 h in data set [3] and in [4] were 91.3 µg/mL and 79.6 µg/mL, respectively.

In the case of `COc1ccn2c(C(=O)c3cc(OC)c(OC)c(OC)c3)cnc2c1`, the results for the pIC50 in the data set with KB and with MKN-45 were 6.11 and 6.14, respectively.

For `COc1ncc2c(C(=O)c3cc(OC)c(OC)c(OC)c3)c[nH]c2n1`, the pIC50 is 6.55 in the data set on KB and 7.10 with MKN-45.

As for `COc1cc(C(=O)c2c[nH]c3nc(C)ccc23)cc(OC)c1OC` [listing 1 of 2 here], the inhibition result in [2] is “Active”.

`COc1ccn2c(C(=O)c3cc(OC)c(OC)c(OC)c3)c(C)cc2c1`: the pIC50 in the data set with KB was less than 6.00; in the data set with MKN-45 it was 6.45.

On to `COc1cc(C(=O)c2c[nH]c3nc(C)ccc23)cc(OC)c1OC` [listing 2 of 2 here], for which the solubility at 24 h was 14.3 µg/mL (≈ 43.8 µM) in data set [3] and 8.3 µg/mL (≈ 25.4 µM) in data set [4]. In addition, the values for the AUC (in the data set with Rattus norvegicus [5]; in data set [11]) were 2653 ng·h/mL and 4640 ng·h/mL, respectively. Moreover, in the data set with Rattus norvegicus [6], the Vdss stood at 0.7 L/kg. Besides, in the data set with Rattus norvegicus [7], the t1/2 was found to be 24 min. Besides, in [8], the half-life was 78 min. In [9], this compound displayed a Cmax of 3750 ng/mL. Besides, the Tmax in data set [10] is 0.5 h. Besides, in data set [12], the bioavailability turned out to be 35%.

The term pIC50 denotes the negative decadic logarithm of the IC50, by convention in mol/L. High values mean a small IC50, low ones a large IC50. One may read the solubility as the dissolved amount per volume that the medium holds. A high value points to much dissolved substance. What is called AUC is the area under the concentration-time curve, a measure of exposure. A lower AUC goes with low exposure. As a reminder, the Vdss is a proportionality between amount in the body and measured concentration, not a real space. Low values mean confinement near the circulation, high ones extensive tissue distribution. One may read the half-life as how long it takes for the measured level to halve. A lower half-life goes with rapid decline. The term Cmax denotes the highest concentration seen after dosing. A word on the Tmax: it is the time at which the peak concentration occurs. The term bioavailability denotes the share of a dose that reaches the circulation, judged against a reference dose that is usually intravenous.

(Values after ChEMBL document CHEMBL1772986, “Scaffold-hopping strategy: synthesis and biological evaluation of 5,6-fused bicyclic heteroaromatics to identify orally bioavailable anticancer agents” (J Med Chem, 2011).)
